# Data from patent publication US10821100B2, “Triazolone compounds as mPGES-1 inhibitors” (Glenmark Pharmaceuticals S.A., priority 2012, dated 2020).
# Target: T1, Recombinant human mPGES-1 (Homo sapiens, UniProt O14684)
# T1 construct: made in house; host or cells: CHO cells (crude microsomal fractions)
# T1 sequence (O14684 1-152): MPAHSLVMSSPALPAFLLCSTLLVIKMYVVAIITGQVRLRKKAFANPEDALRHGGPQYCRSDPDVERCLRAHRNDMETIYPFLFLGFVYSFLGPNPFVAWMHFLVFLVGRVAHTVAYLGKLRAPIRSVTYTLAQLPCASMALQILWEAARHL
# Assay: In-vitro screening of mPGES-1 inhibitors (inhibition of PGE2 formation from PGH2, HTRF detection)
# Assay type: biochemical
# Settings: mPGES-1 enzyme; for inhibition at 1 µM: 1 μM test compound, read-out: Percentage inhibition at 1 μM; for inhibition at 1 µM / inhibition at 10 µM: crude microsomal fractions; for inhibition at 10 µM: 10 μM test compound, read-out: Percentage inhibition at 10 μM; for IC50: class symbols
# Outline: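 Crude CHO-expressed microsomes (40–60 μg/mL protein) preincubated 10 min with compound in 0.1 M potassium phosphate/2 mM EDTA containing 2.5 mM GSH, 0.5% DMSO final. PGH2 (15 μM) reacted 1 min, stopped with stannous chloride. PGE2 quantified by HTRF, IC50 from nonlinear regression of percent inhibition.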
inhibition at 1 µM,inhibition at 10 µM,IC50,Compound
3.34%,39.2%,–,"CC(C)(C)C(=O)NCc1ccc(Cl)c(-n2nc(-c3c(F)cccc3Cl)[nH]c2=O)c1F [Example-88, N-(4-Chloro-3-(3-(2-chloro-6-fluorophenyl)-5-oxo-4,5-dihydro-1H-1,2,4-triazol-1-yl)-2-fluorobenzyl)pivalamide]"
95.3%,99.1%,< 50 nM,"CC(C)(C)C(=O)NCc1ccc(Cl)c(-c2nn(-c3ccc(C#N)cc3)c(=O)[nH]2)c1F [Example-89, N-(4-chloro-3-(1-(4-cyanophenyl)-5-oxo-4,5-dihydro-1H-1,2,4-triazol-3-yl)-2-fluorobenzyl)pivalamide]"
81.7%,97.2%,> 100 nM,"CC(C)(C)C(=O)NCc1ccc(Cl)c(-n2nc(-c3ccc(Cl)cc3F)[nH]c2=O)c1F [Example-90, N-(4-Chloro-3-(3-(4-chloro-2-fluorophenyl)-5-oxo-4,5-dihydro-1H-1,2,4-triazol-1-yl)-2-fluorobenzyl)pivalamide]"
66.2%,94.3%,–,"O=C(NCc1ccc(Cl)c(-n2nc(-c3ccc(Cl)cc3F)[nH]c2=O)c1)C1CC1 [Example-91, N-(4-Chloro-3-(3-(4-chloro-2-fluorophenyl)-5-oxo-4,5-dihydro-1H-1,2,4-triazol-1-yl)benzyl)cyclopropanecarboxamide]"
76%,99.4%,> 100 nM,"O=C(NCc1ccc(Cl)c(-n2nc(-c3ccc(C(F)(F)F)cc3F)[nH]c2=O)c1)C1CC1 [Example-92, N-(4-Chloro-3-(3-(2-fluoro-4-(trifluoromethyl)phenyl)-5-oxo-4,5-dihydro-1H-1,2,4-triazol-1-yl)benzyl)cyclopropanecarboxamide]"
96.8%,99.6%,< 50 nM,"CC(C)(C)C(=O)NCc1ccc(Cl)c(-n2nc(-c3ccc(C(F)(F)F)cc3)[nH]c2=O)c1F [Example-93, N-(4-Chloro-2-fluoro-3-(5-oxo-3-(4-(trifluoromethyl)phenyl)-4,5-dihydro-1H-1,2,4-triazol-1-yl)benzyl)pivalamide]"
87%,100%,> 100 nM,"CC(C)(C)C(=O)NCc1ccc(Cl)c(-c2nn(-c3ccc(C(F)(F)F)cn3)c(=O)[nH]2)c1F [Example-94, N-(4-Chloro-2-fluoro-3-(5-oxo-1-(5-(trifluoromethyl)pyridin-2-yl)-4,5-dihydro-1H-1,2,4-triazol-3-yl)benzyl)pivalamide]"
98.7%,99%,< 50 nM,"CC(C)(C)C(=O)NCc1ccc(Cl)c(-c2nn(-c3ccc(C(F)(F)F)nc3)c(=O)[nH]2)c1F [Example-95, N-(4-Chloro-2-fluoro-3-(5-oxo-1-(6-(trifluoromethyl)pyridin-3-yl)-4,5-dihydro-1H-1,2,4-triazol-3-yl)benzyl)pivalamide]"
52.2%,68.7%,–,"O=c1[nH]c(-c2cc(S(=O)(=O)NC3CC3)ccc2Cl)nn1-c1ccc(C(F)(F)F)cc1 [Example-96, 4-Chloro-N-cyclopropyl-3-(5-oxo-1-(4-(trifluoromethyl)phenyl)-4,5-dihydro-1H-1,2,4-triazol-3-yl)benzenesulfonamide]"
20.2%,6.88%,–,"O=c1[nH]c(-c2cc(S(=O)(=O)NC3CC3)ccc2Cl)nn1-c1ccc(Cl)cc1 [Example-97, 4-Chloro-3-(1-(4-chlorophenyl)-5-oxo-4,5-dihydro-1H-1,2,4-triazol-3-yl)-N-cyclopropylbenzenesulfonamide]"
97.5%,99.5%,< 50 nM,"CC(C)(C)C(=O)NCc1ccc(Cl)c(-c2nn(-c3ccc(Cl)cc3)c(=O)[nH]2)c1F [Example-98, N-(4-Chloro-3-(1-(4-chlorophenyl)-5-oxo-4,5-dihydro-1H-1,2,4-triazol-3-yl)-2-fluorobenzyl)pivalamide]"
95.3%,98.5%,< 50 nM,"O=C(NCc1ccc(Cl)c(-c2nn(-c3ccc(C(F)(F)F)cc3)c(=O)[nH]2)c1)C(F)(F)F [Example-99, N-(4-Chloro-3-(5-oxo-1-(4-(trifluoromethyl)phenyl)-4,5-dihydro-1H-1,2,4-triazol-3-yl)benzyl)-2,2,2-trifluoroacetamide]"
100%,98.6%,< 50 nM,"CC(C)(C)C(=O)NCc1ccc(Cl)c(-c2nn(-c3ccc(C(F)(F)F)cc3)c(=O)[nH]2)c1 [Example-100, N-(4-Chloro-3-(5-oxo-1-(4-(trifluoromethyl)phenyl)-4,5-dihydro-1H-1,2,4-triazol-3-yl)benzyl)pivalamide]"
95%,98.2%,< 50 nM,"O=C(NCc1ccc(Cl)c(-c2nn(-c3ccc(C(F)(F)F)cc3)c(=O)[nH]2)c1)[C@H]1CCCO1 [Example-101, (R)—N-(4-Chloro-3-(5-oxo-1-(4-(trifluoromethyl)phenyl)-4,5-dihydro-1H-1,2,4-triazol-3-yl)benzyl)tetrahydrofuran-2-carboxamide]"
96.5%,98%,< 50 nM,"O=c1[nH]c(-c2cc(CNS(=O)(=O)C3CC3)ccc2Cl)nn1-c1ccc(C(F)(F)F)cc1 [Example-102, N-(4-Chloro-3-(5-oxo-1-(4-(trifluoromethyl)phenyl)-4,5-dihydro-1H-1,2,4-triazol-3-yl)benzyl)cyclopropanesulfonamide]"
19.9%,51.1%,–,"CC(C)(C)C(=O)NCc1ccc(Cl)c(-c2nn(C3CCCCC3)c(=O)[nH]2)c1F [Example-103, N-(4-Chloro-3-(1-cyclohexyl-5-oxo-4,5-dihydro-1H-1,2,4-triazol-3-yl)-2-fluorobenzyl)pivalamide]"
96.9%,99.5%,< 50 nM,"O=C(NCc1ccc(Cl)c(-c2nn(-c3ccc(C(F)(F)F)cc3)c(=O)[nH]2)c1)c1ccccc1F [Example-104, N-(4-Chloro-3-(5-oxo-1-(4-(trifluoromethyl)phenyl)-4,5-dihydro-1H-1,2,4-triazol-3-yl)benzyl)-2-fluorobenzamide]"
73.9%,96%,> 100 nM,"O=C(NCc1ccc(Cl)c(-c2nn(-c3ccc(C(F)(F)F)cc3)c(=O)[nH]2)c1)c1ccno1 [Example-105, N-(4-Chloro-3-(5-oxo-1-(4-(trifluoromethyl)phenyl)-4,5-dihydro-H-1,2,4-triazol-3-yl)benzyl)isoxazole-5-carboxamide]"
92%,96.8%,> 100 nM,"Cc1ccc(CNC(=O)C(F)(F)F)c(C)c1-c1nn(-c2ccc(C(F)(F)F)cc2)c(=O)[nH]1 [Example-106, N-(3-(1-(4-(trifluoromethyl)phenyl)-4,5-dihydro-5-oxo-1H-1,2,4-triazol-3-yl)-2,4-dimethylbenzyl)-2,2,2-trifluoroacetamide]"
56.1%,90.5%,–,"Cc1ccc(CNC(=O)[C@H]2CCCO2)c(C)c1-c1nn(-c2ccc(C(F)(F)F)cc2)c(=O)[nH]1 [Example-107, (R)—N-(2,4-Dimethyl-3-(5-oxo-1-(4-(trifluoromethyl)phenyl)-4,5-dihydro-1H-1,2,4-triazol-3-yl)benzyl)tetrahydrofuran-2-carboxamide]"
89.8%,99.7%,> 100 nM,"Cc1ccc(CNC(=O)C(C)(C)C)c(C)c1-c1nn(-c2ccc(C(F)(F)F)cc2)c(=O)[nH]1 [Example-108, N-(3-(1-(4-(Trifluoromethyl)phenyl)-4,5-dihydro-5-oxo-1H-1,2,4-triazol-3-yl)-2,4-dimethylbenzyl)pivalamide]"
97.1%,97.2%,50 to 100 nM,"O=C(NCc1ccc(Cl)c(-c2nn(-c3ccc(C(F)(F)F)cc3)c(=O)[nH]2)c1)[C@@H]1CCCO1 [Example-109, (S)—N-(4-Chloro-3-(1-(4-(trifluoromethyl)phenyl)-4,5-dihydro-5-oxo-1H-1,2,4-triazol-3-yl)benzyl)-tetrahydro furan-2-carboxamide]"
47.2%,95.1%,–,"Cn1ccnc1C(=O)NCc1ccc(Cl)c(-c2nn(-c3ccc(C(F)(F)F)cc3)c(=O)[nH]2)c1 [Example-110, N-(4-Chloro-3-(1-(4-(trifluoromethyl)phenyl)-4,5-dihydro-5-oxo-1H-1,2,4-triazol-3-yl)benzyl)-1-methyl-1H-imidazole-2-carboxamide]"
87.2%,96.2%,< 50 nM,"CC(C)(C)C#Cc1ccc(-c2nn(-c3c(Cl)ccc(CNC(=O)C(C)(C)C)c3F)c(=O)[nH]2)cc1 [Example-111, N-(4-Chloro-2-fluoro-3-(4,5-dihydro-3-(4-(3,3-dimethylbut-1-ynyl)phenyl)-5-oxo-1,2,4-triazol-1-yl)benzyl)pivalamide]"
99.5%,99.8%,< 50 nM,"CC(C)(C)C(=O)NCc1ccc(Cl)c(-n2nc(-c3ccc(C#CC4CC4)cc3)[nH]c2=O)c1F [Example-112, N-(4-Chloro-3-(3-(4-(2-cyclopropylethynyl)phenyl)-4,5-dihydro-5-oxo-1,2,4-triazol-1-yl)-2-fluorobenzyl)pivalamide]"
99.3%,99.1%,< 50 nM,"O=C(NCc1cc(-c2nn(-c3ccc(C(F)(F)F)cc3)c(=O)[nH]2)c(Cl)cc1F)C(F)(F)F [Example-113, N-(4-chloro-2-fluoro-5-(1-(4-(trifluoromethyl)phenyl)-4,5-dihydro-5-oxo-1H-1,2,4-triazol-3-yl)benzyl)-2,2,2-trifluoroacetamide]"
